Read-outs that look alike come from different tables or passages of the source.
What was measured:
[1] = target: T1, NTMT1 (Homo sapiens, UniProt Q9BV86)
T1 sequence (Q9BV86 1-222): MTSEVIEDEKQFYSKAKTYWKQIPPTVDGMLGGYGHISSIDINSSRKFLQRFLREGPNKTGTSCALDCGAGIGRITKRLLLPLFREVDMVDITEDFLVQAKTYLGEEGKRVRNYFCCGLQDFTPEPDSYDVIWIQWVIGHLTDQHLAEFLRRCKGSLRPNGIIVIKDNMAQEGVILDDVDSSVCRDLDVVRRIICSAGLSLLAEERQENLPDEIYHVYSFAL

[2] = tested on: me3-RCC1 and me3-SET in HEK293 cells; assay: cellular N-methylation level study; assay type: cell-based
[3] = target: NTMT2 (Homo sapiens, UniProt Q5VVY1); assay: SAM-dependent methyltransferase panel; assay type: biochemical; conditions: single dose of 50 μM
[4] = target: MLL1 complex (Homo sapiens, UniProt Q03164); assay: SAM-dependent methyltransferase panel; assay type: biochemical; conditions: single dose of 50 μM
[5] = target: TbPRMT7 (Trypanosoma brucei brucei, UniProt Q582G4); assay: SAHH-coupled selectivity assay, PRMT7; assay type: biochemical
[6] = target: T2, G9a (Homo sapiens, UniProt Q96KQ7); assay: SAHH-coupled selectivity assay, G9a; assay type: biochemical
T2 sequence (Q96KQ7 1-1210): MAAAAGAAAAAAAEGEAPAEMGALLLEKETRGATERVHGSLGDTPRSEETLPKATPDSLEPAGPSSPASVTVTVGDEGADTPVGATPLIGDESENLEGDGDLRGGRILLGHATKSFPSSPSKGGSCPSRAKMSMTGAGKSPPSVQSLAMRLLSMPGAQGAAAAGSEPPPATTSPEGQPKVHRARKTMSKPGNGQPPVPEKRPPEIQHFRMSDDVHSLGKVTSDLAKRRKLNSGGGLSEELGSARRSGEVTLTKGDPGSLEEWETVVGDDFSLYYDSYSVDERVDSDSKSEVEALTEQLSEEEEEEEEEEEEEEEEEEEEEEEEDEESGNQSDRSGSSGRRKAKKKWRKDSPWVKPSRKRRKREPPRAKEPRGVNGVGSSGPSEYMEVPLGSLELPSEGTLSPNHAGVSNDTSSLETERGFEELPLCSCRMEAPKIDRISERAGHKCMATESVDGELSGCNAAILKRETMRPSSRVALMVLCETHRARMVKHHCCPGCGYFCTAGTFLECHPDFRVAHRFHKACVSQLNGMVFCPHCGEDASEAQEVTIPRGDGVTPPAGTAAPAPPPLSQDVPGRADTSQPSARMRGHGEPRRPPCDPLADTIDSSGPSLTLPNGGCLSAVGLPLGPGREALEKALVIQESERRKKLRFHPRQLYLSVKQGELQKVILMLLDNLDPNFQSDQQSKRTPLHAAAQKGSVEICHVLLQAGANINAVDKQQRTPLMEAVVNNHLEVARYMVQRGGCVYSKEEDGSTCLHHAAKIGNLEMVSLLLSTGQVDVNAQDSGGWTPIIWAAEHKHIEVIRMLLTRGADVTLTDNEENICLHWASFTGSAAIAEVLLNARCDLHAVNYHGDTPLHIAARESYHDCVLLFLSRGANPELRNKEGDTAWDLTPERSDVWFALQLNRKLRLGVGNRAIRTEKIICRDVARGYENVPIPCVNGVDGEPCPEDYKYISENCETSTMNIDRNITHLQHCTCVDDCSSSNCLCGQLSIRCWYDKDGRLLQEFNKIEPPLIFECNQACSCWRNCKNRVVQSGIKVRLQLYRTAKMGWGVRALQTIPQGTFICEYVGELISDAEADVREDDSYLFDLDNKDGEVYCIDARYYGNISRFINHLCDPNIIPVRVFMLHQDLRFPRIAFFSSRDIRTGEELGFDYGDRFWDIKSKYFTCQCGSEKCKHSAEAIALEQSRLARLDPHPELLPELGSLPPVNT

[7] = target: T3, SETD7 (Homo sapiens, UniProt Q8WTS6); assay: SAHH-coupled selectivity assay, SETD7; assay type: biochemical
T3 sequence (Q8WTS6 1-366): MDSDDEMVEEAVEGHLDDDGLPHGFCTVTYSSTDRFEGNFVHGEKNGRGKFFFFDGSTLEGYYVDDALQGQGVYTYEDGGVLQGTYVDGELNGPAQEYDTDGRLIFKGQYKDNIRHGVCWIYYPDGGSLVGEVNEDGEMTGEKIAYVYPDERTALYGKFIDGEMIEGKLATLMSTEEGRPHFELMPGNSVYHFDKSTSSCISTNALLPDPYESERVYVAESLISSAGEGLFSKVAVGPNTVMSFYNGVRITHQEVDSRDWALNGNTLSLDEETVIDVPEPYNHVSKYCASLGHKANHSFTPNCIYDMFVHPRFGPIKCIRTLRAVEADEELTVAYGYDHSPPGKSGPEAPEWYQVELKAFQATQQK

[8] = target: PRMT1 (Homo sapiens, UniProt Q99873); assay: SAHH-coupled selectivity assay, PRMT1; assay type: biochemical
[9] = target: SAHH (Homo sapiens, UniProt P23526); assay: selectivity assay, coupling enzyme SAHH; assay type: biochemical
[10] = target: T4, NNMT (Homo sapiens, UniProt P40261); assay: SAHH-coupled selectivity assay, NNMT; assay type: biochemical
T4 sequence (P40261 1-264): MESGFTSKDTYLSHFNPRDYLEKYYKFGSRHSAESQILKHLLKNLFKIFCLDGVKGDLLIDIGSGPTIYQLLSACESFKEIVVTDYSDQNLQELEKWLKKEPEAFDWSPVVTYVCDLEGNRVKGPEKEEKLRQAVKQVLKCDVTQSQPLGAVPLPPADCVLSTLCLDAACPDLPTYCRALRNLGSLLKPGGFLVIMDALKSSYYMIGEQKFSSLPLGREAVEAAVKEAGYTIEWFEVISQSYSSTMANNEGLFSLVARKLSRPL

[11] = target: T5, GCS (Homo sapiens, UniProt Q16739); assay type: cell-based; conditions: 30 nM, HCT116 cells
T5 sequence (Q16739 1-394): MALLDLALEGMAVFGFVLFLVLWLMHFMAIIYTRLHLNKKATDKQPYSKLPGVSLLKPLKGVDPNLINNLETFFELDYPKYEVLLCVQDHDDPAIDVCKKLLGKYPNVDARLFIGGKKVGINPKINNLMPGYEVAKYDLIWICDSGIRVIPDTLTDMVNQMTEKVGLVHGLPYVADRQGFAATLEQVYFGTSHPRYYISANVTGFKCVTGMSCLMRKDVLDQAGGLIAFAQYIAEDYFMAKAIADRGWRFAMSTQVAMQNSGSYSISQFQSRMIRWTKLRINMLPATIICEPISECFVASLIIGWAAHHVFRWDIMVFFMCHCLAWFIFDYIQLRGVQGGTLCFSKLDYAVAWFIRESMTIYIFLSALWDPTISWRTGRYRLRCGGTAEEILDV

[12] = tested on: me3-RCC1 and me3-SET in HEK293 cells; conditions: cited from earlier work

PRMT1, sequence (Q99873 whole entry, species assumed): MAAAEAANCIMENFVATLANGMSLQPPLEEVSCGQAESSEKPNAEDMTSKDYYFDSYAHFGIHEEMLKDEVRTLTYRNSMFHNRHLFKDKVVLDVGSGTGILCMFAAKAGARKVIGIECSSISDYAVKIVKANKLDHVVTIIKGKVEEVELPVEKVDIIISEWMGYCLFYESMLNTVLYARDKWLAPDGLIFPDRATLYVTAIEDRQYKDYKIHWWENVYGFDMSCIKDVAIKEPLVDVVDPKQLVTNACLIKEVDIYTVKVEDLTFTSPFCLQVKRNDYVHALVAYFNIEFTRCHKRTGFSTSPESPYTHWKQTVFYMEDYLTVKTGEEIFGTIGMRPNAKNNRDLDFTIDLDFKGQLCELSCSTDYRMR
SAHH, sequence (P23526 whole entry, species assumed): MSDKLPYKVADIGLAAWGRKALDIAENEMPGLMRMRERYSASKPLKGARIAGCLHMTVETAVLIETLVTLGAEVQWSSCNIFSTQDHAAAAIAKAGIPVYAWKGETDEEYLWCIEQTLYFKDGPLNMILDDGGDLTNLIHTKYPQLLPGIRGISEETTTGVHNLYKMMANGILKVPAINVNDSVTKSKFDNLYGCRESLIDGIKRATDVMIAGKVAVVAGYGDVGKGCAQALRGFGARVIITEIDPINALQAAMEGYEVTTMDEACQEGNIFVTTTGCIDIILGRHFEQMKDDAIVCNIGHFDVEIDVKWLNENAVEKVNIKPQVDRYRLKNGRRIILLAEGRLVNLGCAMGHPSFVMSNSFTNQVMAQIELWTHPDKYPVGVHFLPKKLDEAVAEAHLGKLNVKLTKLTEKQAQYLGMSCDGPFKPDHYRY
TbPRMT7, sequence (Q582G4 whole entry): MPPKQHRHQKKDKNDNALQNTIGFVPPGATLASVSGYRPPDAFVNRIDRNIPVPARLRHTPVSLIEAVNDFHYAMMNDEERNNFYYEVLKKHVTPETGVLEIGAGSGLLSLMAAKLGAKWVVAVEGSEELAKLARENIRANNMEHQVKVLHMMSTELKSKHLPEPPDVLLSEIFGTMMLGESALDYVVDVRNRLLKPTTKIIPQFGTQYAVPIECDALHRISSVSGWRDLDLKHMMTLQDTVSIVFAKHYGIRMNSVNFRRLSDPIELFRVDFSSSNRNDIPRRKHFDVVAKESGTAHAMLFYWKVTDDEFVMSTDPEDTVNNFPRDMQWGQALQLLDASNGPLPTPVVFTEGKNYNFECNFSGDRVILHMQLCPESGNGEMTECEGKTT
NTMT2, sequence (Q5VVY1 whole entry): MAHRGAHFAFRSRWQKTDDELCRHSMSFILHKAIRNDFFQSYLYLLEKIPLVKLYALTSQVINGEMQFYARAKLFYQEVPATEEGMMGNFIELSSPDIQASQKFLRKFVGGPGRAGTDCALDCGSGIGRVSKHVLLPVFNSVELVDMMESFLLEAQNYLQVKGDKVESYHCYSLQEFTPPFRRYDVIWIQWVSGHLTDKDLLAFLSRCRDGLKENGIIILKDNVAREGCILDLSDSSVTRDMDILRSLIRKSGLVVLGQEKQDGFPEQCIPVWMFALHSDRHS
MLL1 complex, sequence (Q9C005 whole entry): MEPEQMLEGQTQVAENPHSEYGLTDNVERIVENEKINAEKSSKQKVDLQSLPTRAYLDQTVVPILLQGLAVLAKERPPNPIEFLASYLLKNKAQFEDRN
MLL1 complex, sequence (Q03164 3745-3969): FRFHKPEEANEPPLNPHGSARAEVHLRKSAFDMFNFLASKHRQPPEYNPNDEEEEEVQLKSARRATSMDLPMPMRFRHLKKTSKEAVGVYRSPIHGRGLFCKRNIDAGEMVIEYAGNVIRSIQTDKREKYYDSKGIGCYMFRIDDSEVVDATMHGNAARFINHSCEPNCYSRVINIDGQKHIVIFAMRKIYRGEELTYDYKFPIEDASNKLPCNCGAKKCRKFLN
MLL1 complex, sequence (Q15291 whole entry, further chain): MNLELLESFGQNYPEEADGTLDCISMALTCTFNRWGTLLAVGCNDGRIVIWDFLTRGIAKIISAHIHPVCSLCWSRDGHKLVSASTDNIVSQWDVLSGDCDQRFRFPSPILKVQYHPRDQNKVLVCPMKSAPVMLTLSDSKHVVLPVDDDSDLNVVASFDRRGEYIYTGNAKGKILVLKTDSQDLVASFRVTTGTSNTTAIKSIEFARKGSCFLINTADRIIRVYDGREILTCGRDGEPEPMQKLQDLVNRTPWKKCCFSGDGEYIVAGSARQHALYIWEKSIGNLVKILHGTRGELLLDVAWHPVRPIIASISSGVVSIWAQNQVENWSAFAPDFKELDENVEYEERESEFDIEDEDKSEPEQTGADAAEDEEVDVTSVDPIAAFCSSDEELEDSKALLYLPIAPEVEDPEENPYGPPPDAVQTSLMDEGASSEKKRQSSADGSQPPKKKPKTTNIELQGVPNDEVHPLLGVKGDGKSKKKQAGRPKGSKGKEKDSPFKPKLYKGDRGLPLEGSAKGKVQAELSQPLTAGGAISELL
MLL1 complex, sequence (Q9UBL3 96-628, further chain): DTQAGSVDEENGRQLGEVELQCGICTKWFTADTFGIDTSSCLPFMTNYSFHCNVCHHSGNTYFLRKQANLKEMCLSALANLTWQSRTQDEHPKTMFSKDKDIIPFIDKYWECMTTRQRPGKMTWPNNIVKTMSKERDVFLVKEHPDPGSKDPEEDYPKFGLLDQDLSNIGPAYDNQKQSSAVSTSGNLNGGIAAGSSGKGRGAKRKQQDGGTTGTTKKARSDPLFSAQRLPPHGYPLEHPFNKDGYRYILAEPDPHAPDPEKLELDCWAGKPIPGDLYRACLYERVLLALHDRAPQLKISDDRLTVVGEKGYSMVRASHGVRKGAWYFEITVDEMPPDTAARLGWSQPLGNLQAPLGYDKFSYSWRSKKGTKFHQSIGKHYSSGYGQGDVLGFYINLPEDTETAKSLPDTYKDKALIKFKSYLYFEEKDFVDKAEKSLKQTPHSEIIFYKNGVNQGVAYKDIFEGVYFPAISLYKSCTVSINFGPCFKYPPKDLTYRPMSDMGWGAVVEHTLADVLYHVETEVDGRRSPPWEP

In the case of `CCCN1CCC[C@H](OC(=O)NC(C)(C)c2csc(-c3ccc(F)cc3)n2)C1` [Compound 6, (S)-1-propylpiperidin-3-yl (2-(2-(4-Fluorophenyl)thiazol-4-yl)propan-2-yl)carbamate], the “fold loss of potency compared to venglustat” value (“fold loss of potency” for short) ([1]; NTMT1 IC50) is reported as “over 40 fold”.

With `CC(C)(C(=O)N[C@@H]1CN2CCC1CC2)c1csc(-c2ccc(F)cc2)n1` [Compound 10, 2-(2-(4-Fluorophenyl)thiazol-4-yl)-2-methyl-N-(quinuclidin-3-yl)propenamide] the “NTMT1 inhibition (in words)” value [1] was “did not show any inhibition”.

With `CC(C)(NC(=O)N[C@@H]1CN2CCC1CC2)c1csc(-c2ccc(F)cc2)n1` [Compound 9, 1-(2-(2-(4-Fluorophenyl)thiazol-4-yl)propan-2-yl)-3-(quinuclidin-3-yl)urea] the “fold loss of potency” value ([1]; NTMT1 IC50) was > 100 fold.

For `CN1CCC[C@H](OC(=O)NC(C)(C)c2csc(-c3ccc(F)cc3)n2)C1` [Compound 5, (S)-1-methylpiperidin-3-yl (2-(2-(4-Fluorophenyl)thiazol-4-yl)propan-2-yl)carbamate], the “fold loss of potency” value ([1]; NTMT1 IC50) was “over 40 fold”.

For `CC(C)(NC(=O)O[C@@H]1CN2CCC1CC2)c1csc(-c2cncnc2)n1` [YD2160], the “change in me3-RCC1 or me3-SET” value ([2]; up to 30 μM) was “did not induce any change”.

With `CC(C)(NC(=O)Oc1cccnc1)c1csc(-c2ccc(F)cc2)n1` [Compound 8, Pyridin-3-yl (2-(2-(4-Fluorophenyl)thiazol-4-yl)propan-2-yl)carbamate] the “NTMT1 inhibition (in words)” value [1] was “null activity”.

In the case of `CC(C)(NC(=O)O[C@@H]1CN2CCC1CC2)c1csc(-c2ccc(F)c(O)c2)n1` [GD433], the inhibition [3] is reported as “potently inhibited”, the inhibition [4] is reported as ~ 25% and the inhibition ([5]; 10 μM) is reported as “no significant inhibition”. The inhibition ([5]; 30 μM) was “no significant inhibition”, the inhibition ([5]; 100 μM) was “did not exhibit inhibition” and the inhibition ([6]; 10 μM) was “no significant inhibition”. The inhibition ([6]; 30 μM) was “no significant inhibition”, the inhibition ([6]; 100 μM) was “did not exhibit inhibition” and the inhibition ([7]; 10 μM) was “no significant inhibition”. The inhibition ([7]; 30 μM) was “no significant inhibition”, the inhibition ([7]; 100 μM) was “did not exhibit inhibition” and the inhibition ([8]; 10 μM) was “no significant inhibition”. The inhibition ([8]; 30 μM) was “no significant inhibition”, the inhibition ([8]; 100 μM) was 50% and the inhibition ([9]; 10 μM) was “no significant inhibition”. For the same compound, the inhibition ([9]; 30 μM) was “no significant inhibition”, the inhibition ([9]; 100 μM) was “did not exhibit inhibition” and the inhibition ([10]; 10 μM) was “no significant inhibition”. The inhibition ([10]; 30 μM) was “no significant inhibition” and the inhibition ([10]; 100 μM) was “did not exhibit inhibition”.

For `CC(C)(NC(=O)O[C@@H]1CN2CCC1CC2)c1csc(-c2ccc(Cl)c(O)c2)n1` [YD2200], the “effect on me3-RCC1 and me3-SET” value ([2]; 1 μM) was “significantly reduces” and the IC50 ([2]; read-out: approximate IC50, me3-RCC1 and me3-SET) was ~300 nM.

For `CC(C)(NC(=O)OCCN1CCCCC1)c1csc(-c2ccc(F)cc2)n1` [Compound 7, 2-(Piperidin-1-yl)ethyl (2-(2-(4-Fluorophenyl)thiazol-4-yl)propan-2-yl)carbamate], the “fold reduction compared to 6” value ([1]; NTMT1 IC50) was > 5 fold.

For `CC(C)(NC(=O)O[C@@H]1CN2CCC1CC2)c1csc(-c2ccc(F)cc2)n1` [venglustat, (S)-quinuclidin-3-yl (2-(2-(4-Fluorophenyl)thiazol-4-yl)propan-2-yl)carbamate], the “inhibition of cellular GCS activity” value [11] is listed as “significantly inhibits”, the IC50 ([12]; cellular inhibition assay) is listed as 500 nM and the IC50 ([12]; read-out: approximate IC50, me3-RCC1 and me3-SET, HEK293 cells) is listed as ~300 nM.

— publication PMC9892271 (Journal of medicinal chemistry, 2023)
